Measurements as given in patent US20250228239A1, “MOLECULES HAVING PESTICIDAL UTILITY, AND INTERMEDIATES, COMPOSITIONS, AND PROCESSES, RELATED THERETO” (priority 2024, published 2025).

What was measured:
Format in all cases: in vivo
[1] = test system: Cabbage Looper (Trichoplusia ni, TRIPNI); test: Bioassays on Cabbage Looper (CL), 128-well diet tray assay; conditions: Trichoplusia ni; Table ABC: Biological Results; species CL; read-out: CL
Summary of the method: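 Percent mortality, averaged across eight replicate wells, after second-instar larvae (1–5 per well) fed for five to seven days on diet dosed at 50 μg/cm^2. Compound was applied in acetone-water 90:10 and dried; trays kept vented at 25° C under 14:10 photoperiod.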

[2] = test system: Yellow Fever Mosquito (Aedes aegypti, AEDSAE); conditions: Table ABC: Biological Results; species YFM
Summary of the method: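 Larvae ~1 day old, in liver powder/water; compound from 4000 ppm DMSO stock diluted with water/acetone (90:10); 6 reps; lidded, RT, 3 d; mortality scored per well, rated.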

[3] = test system: Beet Armyworm (Spodoptera exigua, LAPHEG); test: Bioassays on Beet Armyworm (BAW), 128-well diet tray assay; conditions: Spodoptera exigua; Table ABC: Biological Results; species BAW; read-out: BAW
Summary of the method: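 Mortality of second-instar larvae (1–5/well) on artificial diet treated with 50 μg/cm^2 compound, read after 5–7 days at 25° C.; values are means of eight wells.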

SMILES | pest or weed control at 50 µg/cm2 [1] [%] | YFM [2] | pest or weed control at 50 µg/cm2 [3] [%]
O=C(Nc1ccc(F)cc1F)c1cc(NC(=O)C2C(c3cc(Cl)cc(S(F)(F)(F)(F)F)c3)C2(Cl)Cl)ccc1Cl (stereo not drawn) [F1233, cis-2-Chloro-5-(2,2-dichloro-3-(3-chloro-5-(pentafluoro-λ^6-sulfanyl)phenyl)cyclopropane-1-carboxamido)-I-(2,4-difluorophenyl)benzamide] | 50 to 100 | A (80–100) | 50 to 100
CC(F)(F)C(=O)Nc1c(F)ccc(NC(=O)c2cc(NC(=O)[C@H]3[C@H](c4ccc(Cl)c(Cl)c4)C3(Cl)Cl)ccc2Cl)c1F [F1249, 2-Chloro-5-((1R,3R)-2,2-dichloro-3-(3,4-dichlorophenyl)cyclopropane-1-carboxamido)-N-(3-(2,2-difluoropropanamido)-2,4-difluorophenyl)benzamide] | 50 to 100 | A (80–100) | 50 to 100
O=C(Nc1ccc(F)c(NC(=O)C(Cl)Cl)c1F)c1cc(NC(=O)[C@H]2[C@H](c3ccc(Cl)c(Cl)c3)C2(Cl)Cl)ccc1Cl [F1252, 2-Chloro-5-((1R,3R)-2,2-dichloro-3-(3,4-dichlorophenyl)cyclopropane-1-carboxamido)-N-(3-(2,2-dichloroacetamido)-2,4-difluorophenyl)benzamide] | 50 to 100 | A (80–100) | 50 to 100
O=C(Nc1c(F)ccc(NC(=O)c2cc(NC(=O)[C@H]3[C@H](c4ccc(Cl)c(Cl)c4)C3(Cl)Cl)ccc2Cl)c1F)c1ccccc1 [F1253, N-(3-Benzamido-2,4-difluorophenyl)-2-chloro-5-((1R,3R)-2,2-dichloro-3-(3,4-dichlorophenyl)cyclopropane-1-carboxamido)benzamide] | 50 to 100 | A (80–100) | 50 to 100
COCC(=O)Nc1c(F)ccc(NC(=O)c2cc(NC(=O)[C@H]3[C@H](c4ccc(Cl)c(Cl)c4)C3(Cl)Cl)ccc2Cl)c1F [F1254, 2-Chloro-5-((1R,3R)-2,2-dichloro-3-(3,4-dichlorophenyl)cyclopropane-1-carboxamido)-N-(2,4-difluoro-3-(2-methoxyacetamido)phenyl)benzamide] | 50 to 100 | A (80–100) | 50 to 100
N#CC1(C(=O)Nc2c(F)ccc(NC(=O)c3cc(NC(=O)[C@H]4[C@H](c5ccc(F)c(C(F)(F)F)c5)C4(Cl)Cl)ccc3Cl)c2F)CC1 [F1263, 2-Chloro-N-(3-(1-cyanocyclopropane-1-carboxamido)-2,4-difluorophenyl)-5-((1R,3R)-2,2-dichloro-3-(4-fluoro-3-(trifluoromethyl)phenyl)cyclopropane-1-carboxamido)benzamide] | 50 to 100 | A (80–100) | 50 to 100
O=C(Nc1ccc(F)c(NC(=O)C2CC2)c1F)c1cc(NC(=O)[C@H]2[C@H](c3ccc(F)c(C(F)(F)F)c3)C2(Cl)Cl)ccc1Cl [F1264, 2-Chloro-N-(3-(cyclopropanecarboxamido)-2,4-difluorophenyl)-5-((1R,3R)-2,2-dichloro-3-(4-fluoro-3-(trifluoromethyl)phenyl)cyclopropane-1-carboxamido)benzamide] | 50 to 100 | A (80–100) | 50 to 100
O=C(Nc1ccc(F)c(NC(=O)C(F)F)c1F)c1cc(NC(=O)[C@H]2[C@H](c3ccc(F)c(Cl)c3)C2(Cl)Cl)ccc1Cl [F1270, 2-Chloro-5-((1R,3R)-2,2-dichloro-3-(3-chloro-4-fluorophenyl)cyclopropane-1-carboxamido)-N-(3-(2,2-difluoroacetamido)-2,4-difluorophenyl)benzamide] | 50 to 100 | A (80–100) | 50 to 100
CN(C(=O)C(F)F)c1c(F)ccc(NC(=O)c2cc(NC(=O)[C@H]3[C@H](c4ccc(Cl)c(Cl)c4)C3(Cl)Cl)ccc2Cl)c1F [F1271, 2-Chloro-5-((1R,3R)-2,2-dichloro-3-(3,4-dichlorophenyl)cyclopropane-1-carboxamido)-N-(3-(2,2-difluoro-N-methylacetamido)-2,4-difluorophenyl)benzamide] | 50 to 100 | A (80–100) | 50 to 100
CC1(C(=O)Nc2c(F)ccc(NC(=O)c3cc(NC(=O)[C@H]4[C@H](c5ccc(F)c(C(F)(F)F)c5)C4(Cl)Cl)ccc3Cl)c2F)CC1(Cl)Cl (stereo partly drawn) [F1273, 2-Chloro-N-(3-(2,2-dichloro-1-methylcyclopropane-1-carboxamido)-2,4-difluorophenyl)-5-((1R,3R)-2,2-dichloro-3-(4-fluoro-3-(trifluoromethyl)phenyl)cyclopropane-1-carboxamido)benzamide] | 50 to 100 | A (80–100) | 50 to 100
O=C(Nc1ccc(F)c(NC(=O)C2CC2(F)F)c1F)c1cc(NC(=O)[C@H]2[C@H](c3ccc(F)c(C(F)(F)F)c3)C2(Cl)Cl)ccc1Cl (stereo partly drawn) [F1275, 2-Chloro-5-((1R,3R)-2,2-dichloro-3-(4-fluoro-3-(trifluoromethyl)phenyl)cyclopropane-1-carboxamido)-N-(3-(2,2-difluorocyclopropane-1-carboxamido)-2,4-difluorophenyl)benzamide] | 50 to 100 | A (80–100) | 50 to 100
O=C(Nc1ccc(F)c(NC(=O)C(F)(F)Br)c1F)c1cc(NC(=O)[C@H]2[C@H](c3ccc(F)c(C(F)(F)F)c3)C2(Cl)Cl)ccc1Cl [F1276, N-(3-(2-Bromo-2,2-difluoroacetamido)-2,4-difluorophenyl)-2-chloro-5-((1R,3R)-2,2-dichloro-3-(4-fluoro-3-(trifluoromethyl)phenyl)cyclopropane-1-carboxamido)benzamide] | 50 to 100 | A (80–100) | 50 to 100
CS(=O)(=O)N(c1c(F)ccc(NC(=O)c2cc(NC(=O)[C@H]3[C@H](c4ccc(F)c(C(F)(F)F)c4)C3(Cl)Cl)ccc2Cl)c1F)S(C)(=O)=O [F1277, 2-chloro-5-((1R,3R)-2,2-dichloro-3-(4-fluoro-3-(trifluoromethyl)phenyl)cyclopropane-1-carboxamido)-N-(2,4-difluoro-3-(N-(methylsulfonyl)methylsulfonamido)phenyl)benzamide] | 50 to 100 | A (80–100) | 50 to 100
O=C(Nc1ccc(F)c(NS(=O)(=O)c2ccccc2)c1F)c1cc(NC(=O)[C@H]2[C@H](c3ccc(F)c(C(F)(F)F)c3)C2(Cl)Cl)ccc1Cl [F1295, 2-chloro-5-((1R,3R)-2,2-dichloro-3-(4-fluoro-3-(trifluoromethyl)phenyl)cyclopropane-1-carboxamido)-N-(2,4-difluoro-3-(phenylsulfonamido)phenyl)benzamide] | 50 to 100 | A (80–100) | 50 to 100
O=C(Nc1ccc(F)c(NC(=O)C2CC=CCC2)c1F)c1cc(NC(=O)[C@H]2[C@H](c3ccc(F)c(C(F)(F)F)c3)C2(Cl)Cl)ccc1Cl (stereo partly drawn) [F1297, 2-Chloro-N-(3-(cyclohex-3-ene-1-carboxamido)-2,4-difluorophenyl)-5-((1R,3R)-2,2-dichloro-3-(4-fluoro-3-(trifluoromethyl)phenyl)cyclopropane-1-carboxamido)benzamide] | 50 to 100 | A (80–100) | 50 to 100
O=C(Nc1c(F)ccc(NC(=O)c2cc(NC(=O)[C@H]3[C@H](c4ccc(F)c(C(F)(F)F)c4)C3(Cl)Cl)ccc2Cl)c1F)C(=O)c1ccccc1 [F1298, 2-Chloro-5-((1R,3R)-2,2-dichloro-3-(4-fluoro-3-(trifluoromethyl)phenyl)cyclopropane-1-carboxamido)-N-(2,4-difluoro-3-(2-oxo-2-phenylacetamido)phenyl)benzamide] | 50 to 100 | A (80–100) | 50 to 100
CS(=O)(=O)CC(=O)Nc1c(F)ccc(NC(=O)c2cc(NC(=O)[C@H]3[C@H](c4ccc(F)c(C(F)(F)F)c4)C3(Cl)Cl)ccc2Cl)c1F [F1299, 2-Chloro-5-((1R,3R)-2,2-dichloro-3-(4-fluoro-3-(trifluoromethyl)phenyl)cyclopropane-1-carboxamido)-N-(2,4-difluoro-3-(2-(methylsulfonyl)acetamido)phenyl)benzamide] | 50 to 100 | A (80–100) | 50 to 100
O=C(Nc1c(F)ccc(NC(=O)c2cc(NC(=O)[C@H]3[C@H](c4ccc(F)c(C(F)(F)F)c4)C3(Cl)Cl)ccc2Cl)c1F)c1ccco1 [F1300, N-(3-(2-Chloro-5-((1R,3R)-2,2-dichloro-3-(4-fluoro-3-(trifluoromethyl)phenyl)cyclopropane-1-carboxamido)benzamido)-2,6-difluorophenyl)furan-2-carboxamide] | 50 to 100 | A (80–100) | 50 to 100
O=C(Nc1ccc(F)c(NC(=O)C(F)(F)C(F)F)c1F)c1cc(NC(=O)[C@H]2[C@H](c3ccc(F)c(C(F)(F)F)c3)C2(Cl)Cl)ccc1Cl [F1301, 2-Chloro-5-((1R,3R)-2,2-dichloro-3-(4-fluoro-3-(trifluoromethyl)phenyl)cyclopropane-1-carboxamido)-N-(2,4-difluoro-3-(2,2,3,3-tetrafluoropropanamido)phenyl)benzamide] | 50 to 100 | A (80–100) | 50 to 100
